For this experiment, the target named is hDGAT2 (Homo sapiens (Human), UniProt Q96PD7). The experiment in a line: DGAT2 Enzymatic Activity Assay (triolein formation, LC/MS/MS). Format: biochemical. The note with it: Sf-9 membrane prep expressing hDGAT2; 25 μM diolein, 10 μM oleoyl-CoA; room temperature; read-out: IC50 values for inhibition of DGAT2. Here is the method:
In Vitro DGAT2 ASSAYS and Determination of IC50 Values for DGAT2 Inhibitors
Insect Cell Expression and Membrane Preparation
Sf-9 insect cells were maintained in Grace's insect cell culture medium with 10% heated-inactivated fetal bovine serum, 1% Pluronic F-68 and 0.14 μg/ml Kanamycine sulfate in Erlenmeyer flasks at 28° C. in a shaker incubator. After infection with untagged hDGAT2 baculovirus at multiplicity of infection (MOI) 0.1 for 48 hours, cells were harvested. Cell pellets were suspended in buffer containing 10 mM Tris-HCl (pH 7.5), 1 mM EDTA (pH 8.0), 250 mM sucrose and Complete Protease Inhibitor Cocktail (Roche Diagnostics Corp., Indianapolis, Ill.), and sonicated on ice. Membrane fractions were isolated by ultracentrifugation (100,000× g pellet), resuspended in the same buffer, and frozen (−80° C.) for later use. The protein concentration was determined with the BCA Protein Assay kit (Pierce Biotechnology Inc., Rockford, Ill.). Expression of protein levels was analyzed by immunoblotting with goat polyclonal DGAT2 antibody C-15 and donkey anti-goat IgG HRP (Santa Cruz Biotechnology, Inc., Santa Cruz, Calif.) followed by detection with ECL reagent (GE Healthcare, Piscataway, N.J.).
LC/MS/MS analyses were performed using Thermal Fisher's LX4-TSQ Vantage system. This system consists of an Agilent binary high-performance liquid chromatography (HPLC) pumps and a TSQ Vantage triple quadrupole MS/MS instrument. For each sample, 2 μL samples from the top organic layer of in-plate liquid-liquid extraction were injected onto a Thermo Betabasic C4 column (2.1 mm×20 mm, 5 μm particle size). The samples were then eluted using the following conditions; mobile phase: methanol/water with 0.1% ammonium format=92/8 (v/v), flow rate: 1 mL/min, temperature: 25° C. Data was acquired in positive mode using a heated electrospray ionization (HESI) interface. The operational parameters for the TSQ Vantage MS/MS instrument were a spray voltage of 3000 V, capillary temperature of 280° C., vaporizer temperature 400° C., shealth gas 60 arbitrary unit, Aux gas 40 arbitrary units, S-lens 113 and collision gas 0.16 Pascals. […] (SRM) chromatograms of triolein (Q1: 902.9>Q3:602.3) and internal standard (Q1: 902.9>Q3:602.3) were collected for 40 sec. The peak area was integrated by Xcalibur Quan software. The ratio between the triolein generated in the reaction and spiked in internal standard were used to generate percentage inhibition and IC50 values. Compound percentage inhibition was calculated by the following formula: Inhibition %=1−[(compound response−low control)/(high control−low control)]×100%. Potent compounds were titrated and IC50 were calculated by 4 parameter sigmoidal curve fitting formula.
DGAT2 Enzymatic Activity Assay
DGAT2 activity was determined by measuring the amount of enzymatic product triolein (1,2,3-Tri(cis-9-octadecenoyl)glycerol) using the membrane prep mentioned above. The assay was carried out in deep well 384 plates in a final volume of 40 μL at room temperature. The assay mixture contained the following: assay buffer (100 mM Tris·Cl, pH 7.0, 20 mM MgCl2, 5% ethanol), 25 μM of diolein, 10 μM of oleoyl-CoA and 10 ng/μL of DGAT2 membrane.

One may read the IC50 as the concentration that gives 50% inhibition.

Chain of hDGAT2 (Q96PD7 whole entry): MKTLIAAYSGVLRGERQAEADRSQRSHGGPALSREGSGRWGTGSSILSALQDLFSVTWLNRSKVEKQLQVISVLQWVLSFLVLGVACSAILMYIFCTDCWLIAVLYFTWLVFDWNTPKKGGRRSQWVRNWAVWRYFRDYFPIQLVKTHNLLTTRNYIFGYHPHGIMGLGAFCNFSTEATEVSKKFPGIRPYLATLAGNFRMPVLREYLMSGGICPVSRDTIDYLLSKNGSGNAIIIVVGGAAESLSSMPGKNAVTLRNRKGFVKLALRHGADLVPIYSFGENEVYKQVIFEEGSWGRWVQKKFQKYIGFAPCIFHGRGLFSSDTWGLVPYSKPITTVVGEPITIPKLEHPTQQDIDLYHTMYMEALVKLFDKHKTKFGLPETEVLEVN

For `CC(CNC(=O)c1ccc(-c2cccc(C(F)(F)F)c2)c2c1CN(C(=O)NC(C)(C)C)CC2)c1ncco1` (stereo not drawn) [Example 45, N^2-(tert-butyl)-N^8-(2-(oxazol-2-yl)propyl)-5-(3-(trifluoromethyl)phenyl)-3,4-dihydroisoquinoline-2,8(1H)-dicarboxamide], the IC50 is 1280 nM.

Consider `COc1cccc(-c2ccc(CNC(=O)c3nccc4ccccc34)c3c2CCN(C(=O)NC(C)(C)C)C3)c1` [Example 5, N-((2-(tert-butylcarbamoyl)-5-(3-methoxyphenyl)-1,2,3,4-tetrahydroisoquinolin-8-yl)methyl)isoquinoline-1-carboxamide], for which the IC50 was 135 nM.

For the compound `CC(C)(C)NC(=O)N1CCc2c(-c3cccc(C(F)(F)F)c3)ccc(C(=O)NCc3conc3C#N)c2C1` [Example 27, N^2-(tert-butyl)-N^8-((3-cyanoisoxazol-4-yl)methyl)-5-(3-(trifluoromethyl)phenyl)-3,4-dihydroisoquinoline-2,8(1H)-dicarboxamide], the IC50 is 314 nM.

For `Cc1cc(C)n(CCNC(=O)c2ccc(-c3cccc(C(F)(F)F)c3)c3c2CN(C(=O)NC(C)(C)C)CC3)n1` [Example 31, N^2-(tert-butyl)-N^8-(2-(3,5-dimethyl-1H-pyrazol-1-yl)ethyl)-5-(3-(trifluoromethyl)phenyl)-3,4-dihydroisoquinoline-2,8(1H)-dicarboxamide], the IC50 amounted to 505 nM.

In the case of `CC(C)(C)NC(=O)N1CCc2c(-c3cccc(OC(F)(F)F)c3)ccc(C(=O)NCc3cn4ccsc4n3)c2C1` [Example 74, N^2-(tert-butyl)-N^8-(imidazo[2,1-b]thiazol-6-ylmethyl)-5-(3-(trifluoromethoxy)phenyl)-3,4-dihydroisoquinoline-2,8(1H)-dicarboxamide], the IC50 is 1540 nM.

As for `CC(C)(C)NC(=O)N1CCc2c(-c3cccc(C(F)(F)F)c3)ccc(C(=O)NCCn3cncn3)c2C1` [Example 48, N^8-(2-(1H-1,2,4-triazol-1-yl)ethyl)-N^2-(tert-butyl)-5-(3-(trifluoromethyl)phenyl)-3,4-dihydroisoquinoline-2,8(1H)-dicarboxamide], the IC50 was 1410 nM.

Consider `CC(C)(C)NC(=O)N1CCc2c(-c3cccc(C(F)(F)F)c3)ccc(C(=O)NCc3nnc4n3CCC4)c2C1` [Example 51, N^2-(tert-butyl)-N^8-((6,7-dihydro-5H-pyrrolo[2,1-c][1,2,4]triazol-3-yl)methyl)-5-(3-(trifluoromethyl)phenyl)-3,4-dihydroisoquinoline-2,8(1H)-dicarboxamide], for which the IC50 was determined as 2030 nM.

For the compound `COc1ccc2nc(CCNC(=O)c3ccc(-c4cccc(OC(F)(F)F)c4)c4c3CN(C(=O)NC(C)(C)C)CC4)[nH]c2c1` [Example 13, N^2-(tert-butyl)-N^8-(2-(6-methoxy-1H-benzo[d]imidazol-2-yl)ethyl)-5-(3-(trifluoromethoxy)phenyl)-3,4-dihydroisoquinoline-2,8(1H)-dicarboxamide], the IC50 worked out at 68.9 nM.

Turning to `CC(CNC(=O)c1ccc(-c2cccc(C(F)(F)F)c2)c2c1CN(C(=O)NC(C)(C)C)CC2)n1cccn1` (stereo not drawn) [Example 44, N^8-(2-(1H-pyrazol-1-yl)propyl)-N^2-(tert-butyl)-5-(3-(trifluoromethyl)phenyl)-3,4-dihydroisoquinoline-2,8(1H)-dicarboxamide], the IC50 turned out to be 1200 nM.

As for `CC(C)(C)NC(=O)N1CCc2c(-c3cccc(C(F)(F)F)c3)ccc(C(=O)NCCN3CCCc4ccccc43)c2C1` [Example 43, N^2-(tert-butyl)-N^8-(2-(3,4-dihydroquinolin-1(2H)-yl)ethyl)-5-(3-(trifluoromethyl)phenyl)-3,4-dihydroisoquinoline-2,8(1H)-dicarboxamide], the IC50 was 1140 nM.

Regarding `CC(NC(=O)c1ccc(-c2cccc(OC(F)(F)F)c2)c2c1CN(C(=O)NC(C)(C)C)CC2)c1nc(-c2ccccn2)no1` (stereo not drawn) [Example 73, N^2-(tert-butyl)-N^8-(1-(3-(pyridin-2-yl)-1,2,4-oxadiazol-5-yl)ethyl)-5-(3-(trifluoromethoxy)phenyl)-3,4-dihydroisoquinoline-2,8(1H)-dicarboxamide], the IC50 turned out to be 511 nM.

Take `Cc1cc(C(F)(F)F)nc(CCNC(=O)c2ccc(-c3cccc(C(F)(F)F)c3)c3c2CN(C(=O)NC(C)(C)C)CC3)n1` [Example 38, N^2-(tert-butyl)-N^8-(2-(4-methyl-6-(trifluoromethyl)pyrimidin-2-yl)ethyl)-5-(3-(trifluoromethyl)phenyl)-3,4-dihydroisoquinoline-2,8(1H)-dicarboxamide]: the IC50 is 854 nM.

Regarding `CC(C)(C)NC(=O)N1CCc2c(-c3cccc(C(F)(F)F)c3)ccc(C(=O)N[C@@H](CO)c3ccc(C(F)(F)F)nc3)c2C1` (racemic) [Example 21, (R/S)-N^2-(tert-butyl)-N^8-(2-hydroxy-1-(6-(trifluoromethyl)pyridin-3-yl)ethyl)-5-(3-(trifluoromethyl)phenyl)-3,4-dihydroisoquinoline-2,8(1H)-dicarboxamide], the IC50 worked out at 214 nM.

Take `CC(C)(C)NC(=O)N1CCc2c(-c3cccc(C(F)(F)F)c3)ccc(C(=O)NCCc3cn4cccnc4n3)c2C1` [Example 49, N^2-(tert-butyl)-N^8-(2-(imidazo[1,2-a]pyrimidin-2-yl)ethyl)-5-(3-(trifluoromethyl)phenyl)-3,4-dihydroisoquinoline-2,8(1H)-dicarboxamide]: the IC50 is 1570 nM.

On to `COC(=O)c1cccc(-c2ccc(CNC(=O)c3cc(C(C)(C)C)nn3C)c3c2CCN(C(=O)NC(C)(C)C)C3)c1` [Example 3, methyl 3-(8-((3-(tert-butyl)-1-methyl-1H-pyrazole-5-carboxamido)methyl)-2-(tert-butylcarbamoyl)-1,2,3,4-tetrahydroisoquinolin-5-yl)benzoate], for which the IC50 stood at 17 nM.

For `CC(C)(C)NC(=O)N1CCc2c(-c3cccc(C(F)(F)F)c3)ccc(C(=O)NCCc3nc4ccc(F)cc4[nH]3)c2C1` [Example 8, N^2-(tert-butyl)-N^8-(2-(5-fluoro-1H-benzo[d]imidazol-2-yl)ethyl)-5-(3-(trifluoromethyl)phenyl)-3,4-dihydroisoquinoline-2,8(1H)-dicarboxamide], the IC50 worked out at 32.9 nM.

With `CC(NC(=O)c1ccc(-c2cccc(C(F)(F)F)c2)c2c1CN(C(=O)NC(C)(C)C)CC2)c1cn2ncsc2n1` (stereo not drawn) [Example 64, N^2-(tert-butyl)-N^8-(1-(imidazo[2,1-b][1,3,4]thiadiazol-6-yl)ethyl)-5-(3-(trifluoromethyl)phenyl)-3,4-dihydroisoquinoline-2,8(1H)-dicarboxamide], the IC50 was found to be 390 nM.

For the compound `CC(C)(C)NC(=O)N1CCc2c(-c3cccc(C(F)(F)F)c3)ccc(C(=O)NCCc3ccccc3C(F)(F)F)c2C1` [Example 40, N^2-(tert-butyl)-N^8-(2-(trifluoromethyl)phenethyl)-5-(3-(trifluoromethyl)phenyl)-3,4-dihydroisoquinoline-2,8(1H)-dicarboxamide], the IC50 was determined as 905 nM.

With `CC(C)(C)NC(=O)N1CCc2c(-c3cccc(C(F)(F)F)c3)ccc(C(=O)NCc3cnc4ccccn34)c2C1` [Example 66, N^2-(tert-butyl)-N^8-(imidazo[1,2-a]pyridin-3-ylmethyl)-5-(3-(trifluoromethyl)phenyl)-3,4-dihydroisoquinoline-2,8(1H)-dicarboxamide], the IC50 was 53.4 nM.

On to `Cn1ccnc1CNC(=O)c1ccc(-c2cccc(C(F)(F)F)c2)c2c1CN(C(=O)NC(C)(C)C)CC2` [Example 68, N^2-(tert-butyl)-N^8-((1-methyl-1H-imidazol-2-yl)methyl)-5-(3-(trifluoromethyl)phenyl)-3,4-dihydroisoquinoline-2,8(1H)-dicarboxamide], for which the concentration for half-maximal inhibition (IC50) amounted to 474 nM.

Regarding `CC(C)(C)NC(=O)N1CCc2c(-c3cccc(C(F)(F)F)c3)ccc(C(=O)NCCc3cscn3)c2C1` [Example 29, N^2-(tert-butyl)-N^8-(2-(thiazol-4-yl)ethyl)-5-(3-(trifluoromethyl)phenyl)-3,4-dihydroisoquinoline-2,8(1H)-dicarboxamide], the IC50 worked out at 329 nM.

Values taken from patent US9877957B2, “Tetrahydroisoquinoline derivatives useful as inhibitors of diacylglyceride O-acyltransferase 2” (Merck Sharp & Dohme Corp., priority 2014, dated 2018).
